Assay results as given in US20240116942A1, “SELECTIVE CDK 4/6 INHIBITOR CANCER THERAPEUTICS” (LUNELLA BIOTECH, INC., priority 2020, published 2024).

Legend:
[1] = tested on: CSCs (3D tumor sphere formation); conditions: mitochondrial inhibitors; background statement; cited from earlier work
MCF7 cells = test: mammosphere assay; format: cell-based; conditions: compared to Trilaciclib
Source text: Moreover, CSCs are strikingly resilient and highly resistant to cellular stress, which allows them to undergo anchorage-independent growth, especially under conditions of low-attachment. As a consequence, they form 3D spheroids, which retain the properties of CSCs and stem cell progenitors. In contrast, when subjected to growth in suspension, most “bulk” cancer cells die, via anoikis—a specialized type of apoptosis. […] Therefore, 3D spheroid formation is a functional read-out for stemness in epithelial cancer cells and allows one to enrich for a population of epithelioid cells with a stem-like phenotype. These 3D spheroids are also known as mammospheres when they are prepared using breast cancer cells, such as MCF7, among others.

Compound	3D tumor sphere formation [1]	inhibition of MCF7 cells in the mammosphere assay (MCF7 cells)
Cc1n[nH]c(C)c1Cc1sc2c(c1C(=O)N1C[C@H](O)CO1)c(=O)n(C)c(=O)n2CC(C)C [AR-C155858]	successfully blocked	
O=C(/C=C/c1ccc(O)c(O)c1)OCCc1ccccc1 [CAPE]	successfully blocked	
CCCCC[C@H](CC(=O)NO)C(=O)N[C@H](C(=O)N1CCC[C@H]1CO)C(C)C [actinonin]	successfully blocked	
CC[C@H]1OC(=O)[C@H](C)[C@@H](O[C@H]2C[C@@](C)(OC)[C@@H](O)[C@H](C)O2)[C@H](C)[C@@H](O[C@@H]2O[C@H](C)C[C@H](N(C)C)[C@H]2O)[C@](C)(O)C[C@@H](C)CN(C)[C@H](C)[C@@H](O)[C@]1(C)O [azithromycin]	successfully blocked	
COc1nc2ccc(Br)cc2cc1[C@@H](c1ccccc1)[C@@](O)(CCN(C)C)c1cccc2ccccc12 [bedaquiline]	successfully blocked	
COc1ccc2cc3[n+](cc2c1OC)CCc1cc2c(cc1-3)OCO2 [berberine]	successfully blocked	
COc1ccc([C@@H]2CC(=O)c3c(O)cc(O[C@@H]4O[C@H](COC(=O)CC(C)(O)CC(=O)O)[C@@H](O)[C@H](O)[C@H]4O[C@@H]4O[C@@H](C)[C@H](O)[C@@H](O)[C@H]4O)cc3O2)cc1O (stereo partly drawn) [brutieridin]	successfully blocked	
CCCCCCCCCCCCCC(=O)N1CCN(c2ccc(Nc3ncc4cc5n(c4n3)C3(CCCCC3)CNC5=O)nc2)CC1 [formula [2]]		remarkably improved inhibition
CCCCCCCCCCCCCCCC(=O)CCN1CCN(c2ccc(Nc3ncc4cc5n(c4n3)C3(CCCCC3)CNC5=O)nc2)CC1 [formula [3]]		remarkably improved inhibition
C[C@@H]1O[C@@H](O[C@@H]2[C@@H](Oc3cc(O)c4c(c3)O[C@H](c3ccc(O)cc3)CC4=O)O[C@@H](COC(=O)C[C@@](C)(O)CC(=O)O)[C@H](O)[C@H]2O)[C@@H](O)[C@H](O)[C@H]1O [melitidin]	successfully blocked	
CC[C@H]1/C=C/C=C/C[C@@H](C)[C@H](O)[C@@](C)(O)C(=O)[C@@H](C)[C@H](O)[C@@H](C)C(=O)[C@@H](C)[C@H](O)[C@@H](C)/C=C/C(=O)O[C@@H]2[C@H](C)[C@H](CC1)O[C@]1(CC[C@H](C)[C@H](C[C@@H](C)O)O1)[C@H]2C [oligomycin]	successfully blocked	
CN(C)c1cc(NC(=O)CNC(C)(C)C)c(O)c2c1C[C@H]1C[C@H]3[C@H](N(C)C)C(O)=C(C(N)=O)C(=O)[C@@]3(O)C(O)=C1C2=O [tigecycline]	successfully blocked	
